# Tested on: 941728-121-R-J1-PDC complex spheroid viability
# Experiment: Anticancer human tumor 941728-121-R-J1-PDC patient-derived lung adenocarcinoma cell line growth inhibition [RAS]
# Conditions: for viability, T/C: stronger effect = lower value
# Summary of the method: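 Tumour cells grown as complex spheroids with HUVEC endothelial cells and mesenchymal stem cells, treated with RAS pathway inhibitor combinations. Each agent spans half-log steps from near clinical Cmax, or 10 microM where Cmax is unknown.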
# 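Further: spheroids exposed to compounds for 7 days before readout.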
# 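Wherever viability, T/C is given: 100% = DMSO vehicle control viability.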
structure (smiles),measurement,setting,value
CCc1c2c(nc3ccc(O)cc13)-c1cc3c(c(=O)n1C2)COC(=O)[C@]3(O)CC + CCn1c(-c2cccnc2C(C)OC)c2c3cc(ccc31)N1CCOC(CC(NC(=O)C(C(C)C)N(C)C(=O)C3(F)CCN(C(=O)C#CC(C)(C)N(C)C)CC3)C(=O)N3CCCC(N3)C(=O)OCC(C)(C)C2)C1,IC50,"curve of first compound, second compound 0.000949 µM",< 0.949 nM
same,IC50,"curve of first compound, second compound 0.003 µM",< 0.949 nM
same,IC50,"curve of first compound, second compound 0.00949 µM",< 0.949 nM
same,IC50,"curve of first compound, second compound 0.03 µM",< 0.949 nM
same,IC50,"curve of first compound, second compound 0.0949 µM",< 0.949 nM
same,IC50,"curve of first compound, second compound 0.3 µM",< 0.949 nM
same,"viability, T/C","second compound 0.000949 µM, first compound 0.000949 µM",23.7%
same,"viability, T/C","second compound 0.000949 µM, first compound 0.003 µM",18.9%
same,"viability, T/C","second compound 0.000949 µM, first compound 0.00949 µM",14.2%
same,"viability, T/C","second compound 0.000949 µM, first compound 0.03 µM",17.5%
same,"viability, T/C","second compound 0.000949 µM, first compound 0.0949 µM",11.7%
same,"viability, T/C","second compound 0.000949 µM, first compound 0.3 µM",6.82%
same,"viability, T/C","second compound 0.003 µM, first compound 0.000949 µM",25.2%
same,"viability, T/C","second compound 0.003 µM, first compound 0.003 µM",21.1%
same,"viability, T/C","second compound 0.003 µM, first compound 0.00949 µM",14.8%
same,"viability, T/C","second compound 0.003 µM, first compound 0.03 µM",14.4%
same,"viability, T/C","second compound 0.003 µM, first compound 0.0949 µM",12.2%
same,"viability, T/C","second compound 0.003 µM, first compound 0.3 µM",7.12%
same,"viability, T/C","second compound 0.00949 µM, first compound 0.000949 µM",22.4%
same,"viability, T/C","second compound 0.00949 µM, first compound 0.003 µM",16.3%
same,"viability, T/C","second compound 0.00949 µM, first compound 0.00949 µM",17.1%
same,"viability, T/C","second compound 0.00949 µM, first compound 0.03 µM",13.5%
same,"viability, T/C","second compound 0.00949 µM, first compound 0.0949 µM",11.2%
same,"viability, T/C","second compound 0.00949 µM, first compound 0.3 µM",7.23%
same,"viability, T/C","second compound 0.03 µM, first compound 0.000949 µM",22.5%
same,"viability, T/C","second compound 0.03 µM, first compound 0.003 µM",18.8%
same,"viability, T/C","second compound 0.03 µM, first compound 0.00949 µM",18%
same,"viability, T/C","second compound 0.03 µM, first compound 0.03 µM",16.2%
same,"viability, T/C","second compound 0.03 µM, first compound 0.0949 µM",9.36%
same,"viability, T/C","second compound 0.03 µM, first compound 0.3 µM",8.84%
same,"viability, T/C","second compound 0.0949 µM, first compound 0.000949 µM",19.7%
same,"viability, T/C","second compound 0.0949 µM, first compound 0.003 µM",19.7%
same,"viability, T/C","second compound 0.0949 µM, first compound 0.00949 µM",17.2%
same,"viability, T/C","second compound 0.0949 µM, first compound 0.03 µM",15.3%
same,"viability, T/C","second compound 0.0949 µM, first compound 0.0949 µM",10.7%
same,"viability, T/C","second compound 0.0949 µM, first compound 0.3 µM",9.1%
same,"viability, T/C","second compound 0.3 µM, first compound 0.000949 µM",21.8%
same,"viability, T/C","second compound 0.3 µM, first compound 0.003 µM",18%
same,"viability, T/C","second compound 0.3 µM, first compound 0.00949 µM",16.4%
same,"viability, T/C","second compound 0.3 µM, first compound 0.03 µM",14.2%
same,"viability, T/C","second compound 0.3 µM, first compound 0.0949 µM",10.8%
same,"viability, T/C","second compound 0.3 µM, first compound 0.3 µM",7.87%
CC(Nc1ccc2c(c1)OCCn1cc(N3C(=O)OCC3C(F)F)nc1-2)C(N)=O (stereo not drawn) + C=CC(=O)N1CCN(c2nc(OCC3CCCN3C)nc3c(F)c(-c4nc(N)cc(C)c4C(F)(F)F)c(Cl)cc23)C(C)C1,IC50,"curve of first compound, second compound 0.00316 µM",< 31.6 nM
same,IC50,"curve of first compound, second compound 0.01 µM",< 31.6 nM
same,IC50,"curve of first compound, second compound 0.0316 µM",< 31.6 nM
same,IC50,"curve of first compound, second compound 0.1 µM",< 31.6 nM
same,IC50,"curve of first compound, second compound 0.316 µM",< 31.6 nM
same,IC50,"curve of first compound, second compound 1 µM",< 31.6 nM
same,"viability, T/C","second compound 0.00316 µM, first compound 0.0316 µM",16.6%
same,"viability, T/C","second compound 0.00316 µM, first compound 0.1 µM",15.2%
same,"viability, T/C","second compound 0.00316 µM, first compound 0.316 µM",15.4%
same,"viability, T/C","second compound 0.00316 µM, first compound 1 µM",15.4%
same,"viability, T/C","second compound 0.00316 µM, first compound 3.16 µM",12.8%
same,"viability, T/C","second compound 0.00316 µM, first compound 10 µM",12%
same,"viability, T/C","second compound 0.01 µM, first compound 0.0316 µM",17.7%
same,"viability, T/C","second compound 0.01 µM, first compound 0.1 µM",14.9%
same,"viability, T/C","second compound 0.01 µM, first compound 0.316 µM",15.2%
same,"viability, T/C","second compound 0.01 µM, first compound 1 µM",12.9%
same,"viability, T/C","second compound 0.01 µM, first compound 3.16 µM",12.2%
same,"viability, T/C","second compound 0.01 µM, first compound 10 µM",10.5%
same,"viability, T/C","second compound 0.0316 µM, first compound 0.0316 µM",19.2%
same,"viability, T/C","second compound 0.0316 µM, first compound 0.1 µM",14.6%
same,"viability, T/C","second compound 0.0316 µM, first compound 0.316 µM",13.4%
same,"viability, T/C","second compound 0.0316 µM, first compound 1 µM",12.9%
same,"viability, T/C","second compound 0.0316 µM, first compound 3.16 µM",10.7%
same,"viability, T/C","second compound 0.0316 µM, first compound 10 µM",10.8%
same,"viability, T/C","second compound 0.1 µM, first compound 0.0316 µM",18.3%
same,"viability, T/C","second compound 0.1 µM, first compound 0.1 µM",15.3%
same,"viability, T/C","second compound 0.1 µM, first compound 0.316 µM",12.8%
same,"viability, T/C","second compound 0.1 µM, first compound 1 µM",13.8%
same,"viability, T/C","second compound 0.1 µM, first compound 3.16 µM",11.5%
same,"viability, T/C","second compound 0.1 µM, first compound 10 µM",10.8%
same,"viability, T/C","second compound 0.316 µM, first compound 0.0316 µM",17.5%
same,"viability, T/C","second compound 0.316 µM, first compound 0.1 µM",15.3%
same,"viability, T/C","second compound 0.316 µM, first compound 0.316 µM",13.4%
same,"viability, T/C","second compound 0.316 µM, first compound 1 µM",15.1%
same,"viability, T/C","second compound 0.316 µM, first compound 3.16 µM",13.6%
same,"viability, T/C","second compound 0.316 µM, first compound 10 µM",11.6%
same,"viability, T/C","second compound 1 µM, first compound 0.0316 µM",14.9%
same,"viability, T/C","second compound 1 µM, first compound 0.1 µM",15.7%
same,"viability, T/C","second compound 1 µM, first compound 0.316 µM",14.3%
same,"viability, T/C","second compound 1 µM, first compound 1 µM",13.4%
same,"viability, T/C","second compound 1 µM, first compound 3.16 µM",12.6%
same,"viability, T/C","second compound 1 µM, first compound 10 µM",11.8%
CC(Nc1ccc2c(c1)OCCn1cc(N3C(=O)OCC3C(F)F)nc1-2)C(N)=O (stereo not drawn),"viability, T/C",compound 0.0316 µM,81% [middle of 4 runs]
same,"viability, T/C",compound 0.1 µM,53.6% [middle of 4 runs]
same,"viability, T/C",compound 0.316 µM,40.8% [middle of 4 runs]
same,"viability, T/C",compound 1 µM,42.5% [middle of 4 runs]
same,"viability, T/C",compound 3.16 µM,37.6% [middle of 4 runs]
same,"viability, T/C",compound 10 µM,34.7% [middle of 4 runs]
same,IC50,curve of compound,144 nM [middle of 4 runs]
CC(C)n1nc(-c2ccc3oc(N)nc3c2)c2c(N)ncnc21,"viability, T/C",compound 0.000316 µM,102% [middle of 4 runs]
same,"viability, T/C",compound 0.001 µM,86.9% [middle of 4 runs]
same,"viability, T/C",compound 0.00316 µM,60.5% [middle of 4 runs]
same,"viability, T/C",compound 0.01 µM,55.1% [middle of 4 runs]
same,"viability, T/C",compound 0.0316 µM,40.9% [middle of 4 runs]
same,"viability, T/C",compound 0.1 µM,34.5% [middle of 4 runs]
same,IC50,curve of compound,11.4 nM [middle of 4 runs]

# From PubChem BioAssay AID2060896 (Molecular Pharmacology Branch, DTP, NCI, 2025)
